Laboratory results taken from US20130331610A1, “Halogenated Pyrazolo[1,5-A]Pyrimidines, Processes, Uses, Compositions and Intermediates” (priority 2005, published 2013).
Read-outs that look alike come from different tables or passages of the source.

Assays:
[1] = target: α1 subunit of GABAA receptor (Rattus norvegicus, UniProt P18508+P62813); test: biochemical; conditions: for inhibition at 10 µM: read-out: % Inhib 10^−5 M; for inhibition at 0.1 µM: read-out: % Inhib 10^−7 M
Source text: % specific binding=(X−N/T−N)×100

motor activity of mice = test: In vivo predictive sedation-hypnosis test in mice (inhibition of traveled distance); set-up: species or system mouse; conditions: for inhibition in vivo at 98 µmol/kg / inhibition in vivo at 0.98 µmol/kg / inhibition in vivo at 3 µmol/kg: Mus musculus, read-out: % Inhib motor activity; for inhibition in vivo at 98 µmol/kg: 98 μmol/kg; for inhibition in vivo at 98 µmol/kg / inhibition percentage (motor activity) / inhibition in vivo at 0.98 µmol/kg / inhibition in vivo at 3 µmol/kg: mice; for inhibition percentage (motor activity): 3 μmol/kg po; for inhibition in vivo at 0.98 µmol/kg: 0.98 μmol/kg; for inhibition in vivo at 3 µmol/kg: 3 μmol/kg
Procedure: 2—In Vivo Determination of Predictive Sedative-Hypnotic Action
The in vivo effects of these compounds were assessed by a predictive sedation-hypnosis test in mice (D. J. Sanger et al., Eur. J. Pharmacol., 313, 35-42, 1996; and G. Griebel et al., Psychopharmacology, 146, 205-213, 1999).
Groups of 5-8 male CD1 mice, weighing 22-26 g at the time of testing, were used. The test compounds were administered in single equimolecular intraperitoneal doses, suspended in 0.25% agar with one drop of Tween 80 in a volume of 10 ml/kg. Two doses were tested in each route. Control animals received the vehicle alone. Using a Smart System (Panlab, S. L., Spain) the traveled distance in cm was recorded for each mouse at 5-min intervals during a period of 30 minutes after intraperitoneal (ip) dosing and 60 minutes after oral (po) dosing. The inhibition percentage of traveled distance of treated animals versus control animals (the first 5 min were discarded) was calculated.

HepG2 cells = test: In vitro cell toxicity in HepG2 at 24 h (MTS); type: cell-based, human; conditions: for cell toxicity in HepG2, percentage of control (relative cell viability): 100 μM, 24 h, MTS; for cytotoxicity compared with prior art compounds: HepG2, 24 h
Procedure: In Vitro Determination of Cell Toxicity in HepG2 at 24 h
HepG2 cells (human hepatocellular carcinoma) were obtained from the American Type Culture Collection (ATCC) and cultured in Eagle's Minimum Essential Medium (Eagle) with Earle's balanced salt solution adjusted to contain 1.87 mM Glutamax™ I, 0.1 mM non-essential amino acids, 1.0 mM sodium pyruvate, 100000 U/L penicillin, 10000 μg/L streptomycin 90%; fetal bovine serum, 10%. Promega CellTiter 96® Aqueous Non-Radioactive Cell Viability Assay contains the tetrazolium compound [3-(4,5-dimethylthiazol-2-yl)-5-(3-carboxymethoxyphenyl)-2-(4-sulfophenyl)-2H-tetrazolium, inner salt (MTS). The conversion of MTS into the aqueous soluble formazan product is accomplished by dehydrogenase enzymes found in metabolically active cells. The quantity of formazan product is directly proportional to the number of living cells in culture.
Compounds were dissolved in DMSO to achieve an initial concentration of 100 mM. Serial dilutions were made from this stock solution into DMSO to achieve concentrations of 10, 1, 0.1 and 0.01 mM. The stock solution and serial dilutions were then diluted 1:100 with cell culture medium to obtain […] final assay concentrations of […]. The final DMSO concentration in all wells was 1% v/v. HepG2 cells were incubated with test compounds for 24 hours. Relative cell viability was determined spectrophotometrically at 490 nm following the addition of the MTS dye and further one-hour incubation. Tamoxifen was used as the positive control.
The percent absorbance of the samples treated with the test article was compared to the untreated sample to calculate the percentage of control.

[2] = target: α2 subunit of GABAA receptor (Rattus norvegicus, UniProt P18508+P23576); test: biochemical; conditions: for inhibition at 10 µM: read-out: % Inhib 10^−5 M; for inhibition at 0.1 µM: read-out: % Inhib 10^−7 M
α2 subunit of GABAA receptor, sequence (P23576 29-451): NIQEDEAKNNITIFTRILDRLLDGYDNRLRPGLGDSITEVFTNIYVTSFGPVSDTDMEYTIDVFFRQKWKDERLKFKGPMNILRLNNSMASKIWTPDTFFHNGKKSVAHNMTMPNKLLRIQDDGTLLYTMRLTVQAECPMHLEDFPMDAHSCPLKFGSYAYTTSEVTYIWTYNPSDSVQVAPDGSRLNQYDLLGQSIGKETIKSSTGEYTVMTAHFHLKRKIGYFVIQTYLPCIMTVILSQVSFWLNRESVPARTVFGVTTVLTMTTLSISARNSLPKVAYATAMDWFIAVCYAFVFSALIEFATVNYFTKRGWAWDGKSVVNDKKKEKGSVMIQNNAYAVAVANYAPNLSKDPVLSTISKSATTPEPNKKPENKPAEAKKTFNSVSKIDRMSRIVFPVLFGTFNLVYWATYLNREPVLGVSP
α2 subunit of GABAA receptor, sequence (P18508 39-466): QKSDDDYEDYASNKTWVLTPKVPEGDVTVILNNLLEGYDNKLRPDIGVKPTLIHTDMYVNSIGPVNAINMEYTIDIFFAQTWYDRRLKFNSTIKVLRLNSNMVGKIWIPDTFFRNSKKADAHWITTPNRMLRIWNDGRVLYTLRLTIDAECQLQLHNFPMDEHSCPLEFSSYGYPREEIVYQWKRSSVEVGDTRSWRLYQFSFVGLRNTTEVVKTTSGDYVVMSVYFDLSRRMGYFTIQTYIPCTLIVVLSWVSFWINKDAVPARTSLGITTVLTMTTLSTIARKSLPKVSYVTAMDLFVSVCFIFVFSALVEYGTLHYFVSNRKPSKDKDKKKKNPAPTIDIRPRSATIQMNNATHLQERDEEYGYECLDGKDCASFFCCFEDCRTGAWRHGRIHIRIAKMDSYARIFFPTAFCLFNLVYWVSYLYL
α2 subunit of GABAA receptor, sequence (P63079 26-473 partner): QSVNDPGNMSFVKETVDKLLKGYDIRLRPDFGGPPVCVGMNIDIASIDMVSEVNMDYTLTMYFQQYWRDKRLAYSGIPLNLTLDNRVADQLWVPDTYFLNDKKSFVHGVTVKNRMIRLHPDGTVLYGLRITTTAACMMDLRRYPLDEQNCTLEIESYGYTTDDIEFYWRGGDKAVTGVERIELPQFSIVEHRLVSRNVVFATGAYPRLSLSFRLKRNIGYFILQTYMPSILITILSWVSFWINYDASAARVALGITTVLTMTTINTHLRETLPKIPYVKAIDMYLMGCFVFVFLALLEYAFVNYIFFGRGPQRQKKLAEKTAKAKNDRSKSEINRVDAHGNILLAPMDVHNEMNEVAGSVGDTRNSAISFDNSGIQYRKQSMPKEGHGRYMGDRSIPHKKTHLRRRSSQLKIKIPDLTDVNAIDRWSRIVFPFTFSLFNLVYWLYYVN
Procedure: Determination of the Affinity of Test Compounds for α1- and α2-GABAA Receptor
Male Sprague-Dawley rats weighing 200-250 g at the time of experiment were used. After decapitation, the cerebellum (tissue that mostly contains α1-GABAA receptor) and spinal cord (tissue that mostly contains α2-GABAA receptor) were removed. […] Once the tissues weighed, they were suspended in 50 mM Tris.HCl (pH 7.4), 1:40 (v/v), or sucrose 0.32 M in the case of spinal cord, homogenized and then centrifuged at 20000 g for 10 min at 7° C. The resulting pellet was resuspended under the same conditions and centrifuged again. The pellet was finally resuspended on a minimum volume and kept at −80° C. overnight. On the next day, the process was repeated until the final pellet was resuspended at a ratio of 1:10 (v/v) in the case of cerebellum and at a ratio of 1:5 (v/v) in the case of spinal cord.
Affinity was determined by competitive tests using radiolabeled flumazenil as ligand. […] Simultaneously, the membranes were only incubated with the radiolabeled flumazenil (total binding, 100%) and in the presence of an elevated concentration of unradiolabeled flumazenil (non-specific binding, % estimation of radiolabeled ligand). The reactions started on adding the radiolabeled ligand followed by incubation for 60 minutes at 4° C. At the end of the incubation period, 200 μl of reaction were transferred to a multiscreen plate (Millipore) and filtered using a vacuum manifold and then washed three times with cold test buffer. The multiscreen plates were equipped with a GF/B filter that retained the membranes containing the receptors and the radiolabeled ligand which had been bound to the receptors. After washing, the plates were left till dry. Once dried, scintillation liquid was added and left under stirring overnight. The next day the plates were counted using a Perkin-Elmer Microbeta scintillation counter.
where, X: amount of bound ligand for every concentration of compound. T: total binding, maximum amount bound to the radiolabeled ligand. N: non-specific binding, amount of radiolabeled ligand bound in a non-specific way irrespective of the receptor used.
Every concentrations of each compound were tested in triplicate and their mean values were used to determine the experimental values of % specific binding versus the concentration of compound.

[3] = Metabolic stability in human hepatocytes cytosolic fraction; type: in vitro ADME; conditions: 5 μM, 1.0 mg/ml human cytosol, 37° C.
Procedure: In Vitro Determination of Metabolic Stability in Human Hepatocytes Cytosolic Fraction
Compounds were dissolved in DMSO to achieve an initial concentration of 10 mM. This stock solution was then diluted with solvent and buffer to obtain final assay concentration of 5 μM. Compounds were tested at a single concentration of 5 μM in duplicate incubating with 1.0 mg/ml of pooled human cytosol (obtained from Xenotech plc) at 37° C. Metabolism was assessed in the presence or absence of cofactors and measured as loss of parent compound by LC/MS analysis at 0, 60 and 120-minutes time points. Percent parent remaining was then calculated. A generic LC method was used: • Mobile phase: • A=0.1% Formic acid in water • B=0.1% Formic acid in acetonitrile • HPLC Column: Higgins Clipius C18 5 μm, 50×3 mm • Flow rate: 2 ml·min^−1

[4] = Pharmacokinetic profile after single intravenous dose in rats; type: in vivo; conditions: rat; for Vd / clearance / half-life: male, Sprague-Dawley, plasma; for Vd / clearance / half-life / AUC0-t: mean
Procedure: In Vivo Determination of Pharmacokinetic Profile after Single Dose
Indiplon was used as reference compound. Three male Sprague-Dawley rats, weighing 250-300 g were used for each compound. The sampling was performed by retroorbital sinus puncture at the following time points 2.5, 5, 30, 60, 120, 180, 300 and 420 min post-administration. The samples were kept in an ice-bath until plasma separation. The animals were anaesthetized by isoflurane inhaled at each extraction. Plasma was separated by centrifugation (10 min, 4° C., 4500 rpm) and stored at temperature below −70° C. until analysis.
An analytical method based on an extraction of each compound by liquid-solid extraction and subsequent determination by LC/MS or LC/MS/MS using an internal standard (IS) was used.
Calculation of pharmacokinetic parameters (AUC0-t=area under the curve from zero to last extraction time-point, Cl=clearance, t1/2=half-life and Vd=volume of distribution) according to non-compartmental analysis was performed.

α1 subunit of GABAA receptor, sequence (P62813 28-455): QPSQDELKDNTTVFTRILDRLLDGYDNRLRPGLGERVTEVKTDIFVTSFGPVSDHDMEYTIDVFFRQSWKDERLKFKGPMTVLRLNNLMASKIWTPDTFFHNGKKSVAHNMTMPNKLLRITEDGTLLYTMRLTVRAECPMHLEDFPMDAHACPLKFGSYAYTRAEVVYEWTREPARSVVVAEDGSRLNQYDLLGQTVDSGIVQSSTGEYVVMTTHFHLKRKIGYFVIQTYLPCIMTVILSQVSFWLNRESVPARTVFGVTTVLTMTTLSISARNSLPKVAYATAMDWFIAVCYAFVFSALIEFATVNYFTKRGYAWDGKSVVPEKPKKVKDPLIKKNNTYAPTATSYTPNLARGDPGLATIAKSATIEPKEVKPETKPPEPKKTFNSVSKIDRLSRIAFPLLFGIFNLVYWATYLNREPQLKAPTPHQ
α1 subunit of GABAA receptor, sequence (P18508 39-466): as the sequence (P18508 39-466) above
α1 subunit of GABAA receptor, sequence (P63138 26-474 partner): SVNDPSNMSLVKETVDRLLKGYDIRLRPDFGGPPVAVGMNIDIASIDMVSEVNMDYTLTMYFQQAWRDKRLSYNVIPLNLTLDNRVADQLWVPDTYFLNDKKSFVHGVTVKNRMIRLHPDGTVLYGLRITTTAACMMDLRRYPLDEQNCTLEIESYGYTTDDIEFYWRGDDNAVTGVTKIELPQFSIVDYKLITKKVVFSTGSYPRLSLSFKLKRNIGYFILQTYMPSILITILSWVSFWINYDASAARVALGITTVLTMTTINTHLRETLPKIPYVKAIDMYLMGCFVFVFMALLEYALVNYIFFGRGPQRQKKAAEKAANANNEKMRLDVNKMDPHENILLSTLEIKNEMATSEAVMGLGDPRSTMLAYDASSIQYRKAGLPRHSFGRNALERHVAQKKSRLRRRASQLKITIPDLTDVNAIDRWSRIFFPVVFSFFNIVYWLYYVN

| SMILES | inhibition at 10 µM [1] | inhibition at 0.1 µM [1] | inhibition in vivo at 98 µmol/kg (motor activity of mice; ip) | cell toxicity in HepG2, percentage of control (relative cell viability) (HepG2 cells) | cytotoxicity compared with prior art compounds (HepG2 cells) | inhibition at 10 µM [2] | inhibition at 0.1 µM [2] | inhibition in vivo at 98 µmol/kg (motor activity of mice; po) | Percent parent remaining ([3]; 60 min) | Percent parent remaining ([3]; 120 min) | inhibition in vivo at 0.98 µmol/kg (motor activity of mice; ip) | inhibition in vivo at 3 µmol/kg (motor activity of mice; po) | also measured |
| --- | --- | --- | --- | --- | --- | --- | --- | --- | --- | --- | --- | --- | --- |
| CN(c1cc(-c2ccnc3c(C(=O)c4cccs4)cnn23)ccc1Cl)S(C)(=O)=O [Preparative example 8, N-{2-Chloro-5-[3-(thiophene-2-carbonyl)-pyrazolo[1,5-a]pyrimidin-7-yl]-phenyl}-N-methyl-methanesulfonamide] | 93.8% | 40.9% | 78.3% | 75.39% | less cytotoxicity than prior art compounds | 68.9% | 0% |  |  |  |  |  | melting point: 241 to 243 °C |
| CC(=O)N(C)c1cc(-c2ccnc3c(C(=O)c4cccs4)cnn23)ccc1Cl [Preparative example 4, N-{2-Chloro-5-[3-(thiophene-2-carbonyl)-pyrazolo[1,5-a]pyrimidin-7-yl]-phenyl}-N-methyl-acetamide] | 99.8% | 60% | 90.3% | 92.86% | less cytotoxicity than prior art compounds | 95.7% | 8.4% | 88.7% | 105% | 103% |  |  |  |
| CC(=O)N(C)c1cc(-c2ccnc3c(C(=O)c4cccs4)cnn23)ccc1F [Preparative example 2, N-{2-Fluoro-5-[3-(thiophene-2-carbonyl)-pyrazolo[1,5-a]pyrimidin-7-yl]-phenyl}-N-methyl-acetamide] | 100% | 95.3% | 95% |  | less cytotoxicity than prior art compounds | 99.3% | 67.3% | 92.3% | 104% | 110% | 81.2% | 84% | inhibition percentage (motor activity) (motor activity of mice; 5 minutes): 84%; inhibition percentage (motor activity) (motor activity of mice; 60 minutes): 84%; Vd [4]: 7.24 L/kg; clearance [4]: 45.7 mL/min/kg; half-life [4]: 1.73 h; AUC0-t [4]: 1100 ng·h/mL; area under the curve higher than Indiplon ([4]; versus Indiplon): 57%; clearance lower than Indiplon ([4]; versus Indiplon): 20%; half-life higher than Indiplon ([4]; versus Indiplon): 76%; volume of distribution higher than Indiplon ([4]; versus Indiplon): 212% |
| C#CCN(c1cc(-c2ccnc3c(C(=O)c4cccs4)cnn23)ccc1F)S(C)(=O)=O [Preparative example 10, N-{2-Fluoro-5-[3-(thiophene-2-carbonyl)-pyrazolo[1,5-a]pyrimidin-7-yl]-phenyl}-N-prop-2-ynyl-methanesulfonamide] | 100% | 99.7% | 91.6% |  |  | 100% | 97.5% | 90.2% |  |  | 91.9% | 47.9% | increase in sedative-hypnotic activity (motor activity of mice; versus Example 16 of WO2005014597, low dose, independently of the administration route): higher than 20%; melting point: 149 to 153 °C |
| CC(=O)N(C)c1cccc(-c2ccnc3c(C(=O)c4cccs4)cnn23)c1 [Indiplon, N-{3-[3-(thiophene-2-carbonyl)-pyrazolo[1,5-a]pyrimidin-7-yl]-phenyl}-N-methyl-acetamide, reference compound] |  |  | 88% |  |  |  |  | 82.4% | 100% | 98% | 70.5% | 73.7% | inhibition percentage (motor activity) (motor activity of mice; 5 minutes): 74%; inhibition percentage (motor activity) (motor activity of mice; 60 minutes): 67%; Vd [4]: 2.32 L/kg; clearance [4]: 57.5 mL/min/kg; half-life [4]: 0.984 h; AUC0-t [4]: 700 ng·h/mL |
| CN(c1cc(-c2ccnc3c(C(=O)c4cccs4)cnn23)ccc1F)S(C)(=O)=O [Preparative example 6, N-{2-Fluoro-5-[3-(thiophene-2-carbonyl)-pyrazolo[1,5-a]pyrimidin-7-yl]-phenyl}-N-methyl-methanesulfonamide] | 99.7% | 88.8% | 91.5% | 84.31% | less cytotoxicity than prior art compounds | 97.9% | 55.9% | 82% | 103% | 106% | 69.4% | 46.2% |  |
| CCN(C(C)=O)c1cccc(-c2ccnc3c(C#N)cnn23)c1 [Zaleplon, reference compound] |  |  | 85% |  |  |  |  | 64.1% |  |  | 32.7% | 25.4% |  |
| C#CCN(c1cccc(-c2ccnc3c(C(=O)c4cccs4)cnn23)c1)S(C)(=O)=O [Example 16 WO2005014597, N-{3-[3-(thiophene-2-carbonyl)-pyrazolo[1,5-a]pyrimidin-7-yl]-phenyl}-N-prop-2-ynyl-methanesulfonamide, reference compound] | 100% | 99.9% | 95.4% |  |  |  |  | 84.3% |  |  | 71.4% | 38.8% |  |
| CN(c1cccc(-c2ccnc3c(C(=O)c4cccs4)cnn23)c1)S(C)(=O)=O [Example 3 WO2005014597, N-{3-[3-(thiophene-2-carbonyl)-pyrazolo[1,5-a]pyrimidin-7-yl]-phenyl}-N-methyl-methanesulfonamide, reference compound] | 100% | 90.6% | 89.8% |  |  | 99.8% | 58.5% |  |  |  | 64.6% |  |  |
